Data as given in EP0112332B1, “VITAMIN D GLYCOSIDES” (THE GENERAL HOSPITAL CORPORATION, priority 1982, dated 1984).

Tests used:
[1] = in vivo, dosed parenterally and daily; cited from earlier work
[2] = tested on: Intestinal calcium transport; test: Intestinal calcium transport by the everted gut sac technique after oral dosing of vitamin D deficient rats; format: in vivo; conditions: for I/O (inside Ca⁴⁵/outside Ca⁴⁵) ± S.D.: 24 hours later, vehicle 1.6 ± 0.3; for stimulating intestinal calcium absorption (result in words): summary of the table data, oral dosing of rats
Description: (§1) The vitamin D₃, 3β-glucoside vitamin D₃, 3α-glucoside and the vitamin D₃, 3β glucoside acetate were tested for biological activity. Male weanling rats from Holtzmann Company, Madison, Wisconsin, U.S.A., were fed a vitamin D deficient diet that was adequate in phosphorus and low in calcium (0.02%) for 3-1/2 weeks. Groups of five animals received orally either 4 µg, 1 µg, 0.5 µg, 0.25 µg of Vitamin D₃ -3β- glucoside, 1 µg Vitamin D₃ -3α- glucoside or 2 µg Vitamin D₃ -3β- glucoside acetate in 50 µl of 95% ethanol or vehicle alone. 24 hours later the animals were sacrificed and the small intestine and blood were collected. Intestinal calcium transport studies were performed by the everted gut sac technique, and blood was used for serum calcium determinations.

[3] = Serum calcium determination (bone calcium mobilization) after oral dosing of vitamin D deficient rats on low calcium diet; format: in vivo
Description: as §1

Row | Structure (SMILES) | times more potent than D₃ [1] | times more potent than the monohydroxy form of the vitamin [1] | I/O (inside Ca⁴⁵/outside Ca⁴⁵) ± S.D. ([2]; 2 µg orally in 50 µl of 95% ethanol) | stimulating intestinal calcium absorption (result in words) [2] | Serum Calcium ± S.D. ([3]; 4 µg orally in 50 µl of 95% ethanol, 24 hours later, vehicle 4.3 ± 0.2) | stimulating bone calcium mobilization (result in words) ([3]; summary of the table data, oral dosing of rats) | I/O (inside Ca⁴⁵/outside Ca⁴⁵) ± S.D. ([2]; 0.25 µg orally in 50 µl of 95% ethanol) | I/O (inside Ca⁴⁵/outside Ca⁴⁵) ± S.D. ([2]; 0.5 µg orally in 50 µl of 95% ethanol) | I/O (inside Ca⁴⁵/outside Ca⁴⁵) ± S.D. ([2]; 1 µg orally in 50 µl of 95% ethanol) | I/O (inside Ca⁴⁵/outside Ca⁴⁵) ± S.D. ([2]; 4 µg orally in 50 µl of 95% ethanol, male weanling rats, vitamin D deficient low calcium diet)
1 | C=C1/C(=C\C=C2/CCC[C@]3(C)[C@@H]([C@H](C)CCCC(C)(C)O)CC[C@@H]23)C[C@@H](O)C[C@@H]1O [1α, 25-(OH)₂D₃] | 5-10 times | 2-5 times | – | – | – | – | – | – | – | –
2 | C=C1CC[C@H](O[C@@H]2O[C@H](COC(C)=O)[C@@H](OC(C)=O)[C@H](OC(C)=O)[C@H]2OC(C)=O)C/C1=C/C=C1\CCC[C@]2(C)[C@@H]([C@H](C)CCCC(C)C)CC[C@@H]12 [Vitamin D₃ 3β- glucoside acetate, 9,10-secocholesta-5,7,10(19)-trien-3β-yl-2',3',4',6'-tetra-O-acetyl -β-D-glucopyranoside] | – | – | 1.7 ± 0.2 | appears inactive | – | – | – | – | – | –
3 | C=C1CC[C@H](O[C@@H]2O[C@H](CO)[C@@H](O)[C@H](O)[C@H]2O)C/C1=C/C=C1\CCC[C@]2(C)[C@@H]([C@H](C)CCCC(C)C)CC[C@@H]12 [Vitamin D₃ 3β- glucoside, 9,10-secocholesta-5,7,10(19)triene-3β-yl -β-D-glucopyranoside] | – | – | – | capable of stimulating intestinal calcium absorption | 5.3 ± 0.2 | capable of stimulating | 2.0 ± 0.2 | 2.5 ± 0.2 | 3.6 ± 0.3 | 3.9 ± 0.2
